Measured values: ChEMBL document CHEMBL1201862, “PubChem BioAssay data set” (2004)
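Exposure lasted 48 hours, with cells grown in 96-well plates and compounds tested at five concentrations. GI50 is the concentration that inhibits growth by half.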 The source made the active and inactive calls. No stated cut-off is given here; in the data, active = GI50 up to about 1.1 µM and inactive = higher.

Key:
Assay in all cases: inhibition of tumour cell growth, NCI panel, 48 h
COLO 205 = tested on: COLO 205
LXFL 529 = tested on: LXFL 529
RXF 631 = tested on: RXF 631
SNB-75 = tested on: SNB-75
NCI-H23 = tested on: NCI-H23
CCRF-CEM = tested on: CCRF-CEM
NCI-H226 = tested on: NCI-H226
SNB-19 = tested on: SNB-19
U-251 = tested on: U-251
HT-29 = tested on: HT-29
DLD-1 = tested on: DLD-1
UO-31 = tested on: UO-31
MOLT-4 = tested on: MOLT-4
HL-60 = tested on: HL-60
KM12 = tested on: KM12
HOP-92 = tested on: HOP-92
KM-20L2 = tested on: KM-20L2
HCT-116 = tested on: HCT-116
SK-MEL-5 = tested on: SK-MEL-5
K562 = tested on: K562
SR = tested on: SR
SF-539 = tested on: SF-539
M14 = tested on: M14
ACHN = tested on: ACHN
Malme-3M = tested on: Malme-3M
CAKI-1 = tested on: CAKI-1
HOP-18 = tested on: HOP-18
EKVX = tested on: EKVX
A549 = tested on: A549
UACC-62 = tested on: UACC-62
HCT-15 = tested on: HCT-15
SF-268 = tested on: SF-268
OVCAR-8 = tested on: OVCAR-8
SW-620 = tested on: SW-620
SK-OV-3 = tested on: SK-OV-3
NCI-H460 = tested on: NCI-H460
TK-10 = tested on: TK-10
OVCAR-4 = tested on: OVCAR-4
RPMI-8226 = tested on: RPMI-8226
IGROV-1 = tested on: IGROV-1
OVCAR-3 = tested on: OVCAR-3
HOP-62 = tested on: HOP-62
SK-MEL-28 = tested on: SK-MEL-28
SF-295 = tested on: SF-295
SN12C = tested on: SN12C
786-0 = tested on: 786-0
M19-MEL = tested on: M19-MEL
NCI-H522 = tested on: NCI-H522
UACC-257 = tested on: UACC-257
SK-MEL-2 = tested on: SK-MEL-2
RXF 393 = tested on: RXF 393
DMS-114 = tested on: DMS-114

SMILES: CC1=CC(=O)C(C)(C2=NC(C)(C)CO2)c2ccccc21 (configuration not stated)
- GI50 (COLO 205): > 100 µM (inactive)
- GI50 (LXFL 529): > 100 µM (inactive)
- GI50 (RXF 631): > 100 µM (inactive)
- GI50 (SNB-75): > 100 µM (inactive)
- GI50 (NCI-H23): > 100 µM (inactive)
- GI50 (CCRF-CEM): > 100 µM (inactive)
- GI50 (NCI-H226): > 100 µM (inactive)
- GI50 (SNB-19): > 100 µM (inactive)
- GI50 (U-251): > 100 µM (inactive)
- GI50 (HT-29): > 100 µM (inactive)
- GI50 (DLD-1): > 100 µM (inactive)
- GI50 (UO-31): > 100 µM (inactive)
- GI50 (MOLT-4): > 100 µM (inactive)
- GI50 (HL-60): > 100 µM (inactive)
- GI50 (KM12): > 100 µM (inactive)
- GI50 (HOP-92): > 100 µM (inactive)
- GI50 (KM-20L2): > 100 µM (inactive)
- GI50 (HCT-116): > 100 µM (inactive)
- GI50 (SK-MEL-5): > 100 µM (inactive)
- GI50 (K562): > 100 µM (inactive)
- GI50 (SR): > 100 µM (inactive)
- GI50 (SF-539): > 100 µM (inactive)
- GI50 (M14): > 100 µM (inactive)
- GI50 (ACHN): > 100 µM (inactive)
- GI50 (Malme-3M): > 100 µM (inactive)
- GI50 (CAKI-1): > 100 µM (inactive)
- GI50 (HOP-18): 31.6 µM (inactive)
- GI50 (EKVX): > 100 µM (inactive)
- GI50 (A549): > 100 µM (inactive)
- GI50 (UACC-62): > 100 µM (inactive)
- GI50 (HCT-15): > 100 µM
- GI50 (SF-268): > 100 µM (inactive)
- GI50 (OVCAR-8): > 100 µM (inactive)
- GI50 (SW-620): > 100 µM (inactive)
- GI50 (SK-OV-3): > 100 µM (inactive)
- GI50 (NCI-H460): > 100 µM (inactive)
- GI50 (TK-10): > 100 µM (inactive)
- GI50 (OVCAR-4): > 100 µM (inactive)
- GI50 (RPMI-8226): > 100 µM (inactive)
- GI50 (IGROV-1): > 100 µM (inactive)
- GI50 (OVCAR-3): > 100 µM (inactive)
- GI50 (HOP-62): > 100 µM (inactive)
- GI50 (SK-MEL-28): > 100 µM (inactive)
- GI50 (SF-295): > 100 µM (inactive)
- GI50 (SN12C): > 100 µM (inactive)
- GI50 (786-0): > 100 µM (inactive)
- GI50 (M19-MEL): > 100 µM (inactive)
- GI50 (NCI-H522): > 100 µM (inactive)
- GI50 (UACC-257): > 100 µM (inactive)
- GI50 (SK-MEL-2): > 100 µM (inactive)
- GI50 (RXF 393): > 100 µM (inactive)
- GI50 (DMS-114): > 100 µM (inactive)
